Source: ChEMBL document CHEMBL5154882, “Discovery of 4-Hydroxyquinazoline Derivatives as Small Molecular BET/PARP1 Inhibitors That Induce Defective Homologous Recombination and Lead to Synthetic Lethality for Triple-Negative Breast Cancer Therapy” (J Med Chem, 2022)
The source made the active and inactive calls. The rule behind the calls is not given here.

Tests used:
MDA-MB-231 [1] = assay: Antitumor activity against human MDA-MB-231 cells xenografted in BALB/c nude mouse assessed as tumor growth inhibition at 80 mg/kg incubated for 30 to 40 mins by Ki-67 staining based immunohistochemical analysis; type: functional, organism-based; conditions: time 30-40 min
MDA-MB-231 [2] = assay: Antitumor activity against human MDA-MB-231 cells xenografted in BALB/c nude mouse assessed as reduction in CtIp expression at 80 mg/kg incubated for 30 to 40 mins by immunohistochemical analysis; type: functional, organism-based; conditions: time 30-40 min
MDA-MB-231 [3] = assay: Antiproliferative activity against human MDA-MB-231 cells assessed as reduction in cell viability incubated for 72 hrs by MTT assay; type: functional, cell-based; conditions: MDA-MB-231, 72 h
MDA-MB-468 [4] = assay: Antiproliferative activity against human MDA-MB-468 cells assessed as reduction in cell viability incubated for 72 hrs by MTT assay; type: functional, cell-based; conditions: MDA-MB-468, 72 h
[5] = target: Bromodomain-containing protein 4 (Homo sapiens, UniProt O60885); assay: Inhibition of BRD4 (unknown origin) at 1 uM relative to control
[6] = target: T1, Poly [ADP-ribose] polymerase 1 (Homo sapiens, UniProt P09874); assay: Inhibition of PARP1 (unknown origin) at 1 uM relative to control
[7] = target: T1, Poly [ADP-ribose] polymerase 1; assay: Inhibition of PARP1 (unknown origin) using NAD+ as substrate incubated for 60 mins by ELISA
MDA-MB-468 [8] = assay: Antitumor activity against human MDA-MB-468 cells xenografted in BALB/c nude mouse model assessed as tumor growth inhibition at 80 mg/kg, ig administered daily for 16 days measured every 3 days relative to control; type: functional; conditions: MDA-MB-468, po, 384 h, time 16 day, read-out: TGI
[9] = Toxicity in BALB/c nude mouse xenografted with human MDA-MB-468 cells assessed as change in body weight at 40 to 80 mg/kg, ig administered daily for 16 days measured every 3 days; type: organism-based; conditions: in vivo, po, 384 h, dose 40-80 mg/kg, time 16 day
[10] = Toxicity in BALB/c nude mouse xenografted with human MDA-MB-468 cells assessed as change in body weight at 80 mg/kg, ig administered daily for 16 days measured every 3 days; type: organism-based; conditions: in vivo, po, 384 h, time 16 day
[11] = Toxicity in BALB/c nude mouse xenografted with human MDA-MB-468 cells assessed as death at 40 to 80 mg/kg, ig administered daily for 16 days measured every 3 days; type: organism-based; conditions: in vivo, po, 384 h, dose 40-80 mg/kg, time 16 day
[12] = Toxicity in BALB/c nude mouse xenografted with human MDA-MB-468 cells assessed as death at 80 mg/kg, ig administered daily for 16 days measured every 3 days; type: organism-based; conditions: in vivo, po, 384 h, time 16 day
[13] = Toxicity in BALB/c nude mouse xenografted with human MDA-MB-468 cells assessed as morphological changes in heart at 80 mg/kg, ig administered daily for 16 days measured every 3 days by hematoxyin-eosin staining based analysis; type: organism-based; conditions: in vivo, po, 384 h, time 16 day
[14] = Toxicity in BALB/c nude mouse xenografted with human MDA-MB-468 cells assessed as morphological changes in heart at 40 to 80 mg/kg, ig administered daily for 16 days measured every 3 days by hematoxyin-eosin staining based analysis; type: organism-based; conditions: in vivo, po, 384 h, dose 40-80 mg/kg, time 16 day
[15] = Toxicity in BALB/c nude mouse xenografted with human MDA-MB-468 cells assessed as morphological changes in liver at 80 mg/kg, ig administered daily for 16 days measured every 3 days by hematoxyin-eosin staining based analysis; type: organism-based; conditions: in vivo, po, 384 h, time 16 day
[16] = Toxicity in BALB/c nude mouse xenografted with human MDA-MB-468 cells assessed as morphological changes in liver at 40 to 80 mg/kg, ig administered daily for 16 days measured every 3 days by hematoxyin-eosin staining based analysis; type: organism-based; conditions: in vivo, po, 384 h, dose 40-80 mg/kg, time 16 day
[17] = Toxicity in BALB/c nude mouse xenografted with human MDA-MB-468 cells assessed as morphological changes in spleen at 80 mg/kg, ig administered daily for 16 days measured every 3 days by hematoxyin-eosin staining based analysis; type: organism-based; conditions: in vivo, po, 384 h, time 16 day
[18] = Toxicity in BALB/c nude mouse xenografted with human MDA-MB-468 cells assessed as morphological changes in spleen at 40 to 80 mg/kg, ig administered daily for 16 days measured every 3 days by hematoxyin-eosin staining based analysis; type: organism-based; conditions: in vivo, po, 384 h, dose 40-80 mg/kg, time 16 day
[19] = Toxicity in BALB/c nude mouse xenografted with human MDA-MB-468 cells assessed as morphological changes in lung at 80 mg/kg, ig administered daily for 16 days measured every 3 days by hematoxyin-eosin staining based analysis; type: organism-based; conditions: in vivo, po, 384 h, time 16 day
[20] = Toxicity in BALB/c nude mouse xenografted with human MDA-MB-468 cells assessed as morphological changes in lung at 40 to 80 mg/kg, ig administered daily for 16 days measured every 3 days by hematoxyin-eosin staining based analysis; type: organism-based; conditions: in vivo, po, 384 h, dose 40-80 mg/kg, time 16 day
[21] = Toxicity in BALB/c nude mouse xenografted with human MDA-MB-468 cells assessed as morphological changes in kidney at 80 mg/kg, ig administered daily for 16 days measured every 3 days by hematoxyin-eosin staining based analysis; type: organism-based; conditions: in vivo, po, 384 h, time 16 day
[22] = Toxicity in BALB/c nude mouse xenografted with human MDA-MB-468 cells assessed as morphological changes in kidney at 40 to 80 mg/kg, ig administered daily for 16 days measured every 3 days by hematoxyin-eosin staining based analysis; type: organism-based; conditions: in vivo, po, 384 h, dose 40-80 mg/kg, time 16 day
MDA-MB-231 [23] = assay: Antitumor activity against human MDA-MB-231 cells xenografted in BALB/c nude mouse assessed as reduction in c-Myc expression at 80 mg/kg incubated for 30 to 40 mins by immunohistochemical analysis; type: functional, organism-based; conditions: time 30-40 min
MDA-MB-231 [24] = assay: Antitumor activity against human MDA-MB-231 cells xenografted in BALB/c nude mouse assessed as reduction in PAR expression at 80 mg/kg incubated for 30 to 40 mins by immunohistochemical analysis; type: functional, organism-based; conditions: time 30-40 min
MDA-MB-231 [25] = assay: Antitumor activity against human MDA-MB-231 cells xenografted in BALB/c nude mouse assessed as reduction in Rad51 expression at 80 mg/kg incubated for 30 to 40 mins by immunohistochemical analysis; type: functional, organism-based; conditions: time 30-40 min
MDA-MB-231 [26] = assay: Antitumor activity against human MDA-MB-231 cells xenografted in BALB/c nude mouse assessed as downregulation of CtIP at 80 mg/kg by Western blot analysis; type: functional, organism-based
MDA-MB-231 [27] = assay: Antitumor activity against human MDA-MB-231 cells xenografted in BALB/c nude mouse assessed as downregulation of c-Myc at 80 mg/kg by Western blot analysis; type: functional, organism-based
MDA-MB-231 [28] = assay: Antitumor activity against human MDA-MB-231 cells xenografted in BALB/c nude mouse assessed as downregulation of PAR at 80 mg/kg by Western blot analysis; type: functional, organism-based
MDA-MB-231 [29] = assay: Antitumor activity against human MDA-MB-231 cells xenografted in BALB/c nude mouse assessed as downregulation of Rad51 at 80 mg/kg by Western blot analysis; type: functional, organism-based

T1 sequence (P09874 whole entry): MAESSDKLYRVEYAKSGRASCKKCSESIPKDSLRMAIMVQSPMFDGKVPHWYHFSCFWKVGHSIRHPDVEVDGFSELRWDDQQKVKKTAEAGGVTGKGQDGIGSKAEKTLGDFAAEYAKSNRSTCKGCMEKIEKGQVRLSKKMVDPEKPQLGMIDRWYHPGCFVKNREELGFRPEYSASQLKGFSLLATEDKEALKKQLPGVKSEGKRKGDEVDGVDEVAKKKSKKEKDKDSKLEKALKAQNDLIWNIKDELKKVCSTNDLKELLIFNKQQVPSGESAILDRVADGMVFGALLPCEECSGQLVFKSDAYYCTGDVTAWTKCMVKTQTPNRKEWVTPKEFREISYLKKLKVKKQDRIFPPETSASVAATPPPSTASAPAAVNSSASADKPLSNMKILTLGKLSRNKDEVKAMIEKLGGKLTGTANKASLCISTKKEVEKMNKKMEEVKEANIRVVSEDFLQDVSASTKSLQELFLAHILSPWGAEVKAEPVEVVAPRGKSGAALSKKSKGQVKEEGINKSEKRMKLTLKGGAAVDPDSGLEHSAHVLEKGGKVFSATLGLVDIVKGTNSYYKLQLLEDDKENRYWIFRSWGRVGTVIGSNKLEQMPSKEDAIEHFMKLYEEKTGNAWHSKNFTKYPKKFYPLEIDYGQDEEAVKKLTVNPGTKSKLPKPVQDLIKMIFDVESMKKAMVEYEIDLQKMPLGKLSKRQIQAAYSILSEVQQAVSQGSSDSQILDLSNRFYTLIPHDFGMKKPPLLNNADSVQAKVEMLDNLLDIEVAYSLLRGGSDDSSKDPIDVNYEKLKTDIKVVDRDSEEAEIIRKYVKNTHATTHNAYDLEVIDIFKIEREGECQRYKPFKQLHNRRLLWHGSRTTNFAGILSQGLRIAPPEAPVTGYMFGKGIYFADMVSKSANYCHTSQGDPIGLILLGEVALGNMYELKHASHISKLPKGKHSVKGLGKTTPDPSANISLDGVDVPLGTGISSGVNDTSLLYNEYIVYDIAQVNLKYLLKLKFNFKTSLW

Question: Which Activity (MDA-MB-231 [1]) does the source give for `COc1cc(OC)c2c(=O)[nH]c(-c3cc(C)c(OCCOc4ccccc4C(N)=O)c(C)c3)nc2c1` here?
Answer: The Activity was “Active”.

Question: And the Activity (MDA-MB-231 [2])?
Answer: The Activity was “Active”.

Question: And the IC50 (MDA-MB-231 [3])?
Answer: The IC50 was 15.6 µM.

Question: And the IC50 (MDA-MB-468 [4])?
Answer: Its IC50 is 6.42 µM.

Question: And the inhibition [5]?
Answer: The inhibition was 66.2%.

Question: And the inhibition [6]?
Answer: Its inhibition is 35.9%.

Question: What about the IC50 [7] of the same molecule?
Answer: The IC50 was 0.0046 µM.

Question: And the inhibition in vivo at 80 mg/kg (MDA-MB-468 [8])?
Answer: The inhibition in vivo at 80 mg/kg was 62.5%.

Question: What about the Activity [9] of the same molecule?
Answer: The Activity was “Non-Toxic”.

Question: And the Activity [10]?
Answer: The Activity was “Non-Toxic”.

Question: And the Activity [11]?
Answer: Its Activity is “Non-Toxic”.

Question: And the Activity [12]?
Answer: The Activity was “Non-Toxic”.

Question: And the Activity [13]?
Answer: Its Activity is “Non-Toxic”.

Question: And the Activity [14]?
Answer: Its Activity is “Non-Toxic”.

Question: What about the Activity [15] of the same molecule?
Answer: Its Activity is “Non-Toxic”.

Question: And the Activity [16]?
Answer: The Activity was “Non-Toxic”.

Question: And the Activity [17]?
Answer: The Activity was “Non-Toxic”.

Question: And the Activity [18]?
Answer: Its Activity is “Non-Toxic”.

Question: And the Activity [19]?
Answer: Its Activity is “Non-Toxic”.

Question: And the Activity [20]?
Answer: The Activity was “Non-Toxic”.

Question: And the Activity [21]?
Answer: The Activity was “Non-Toxic”.

Question: And the Activity [22]?
Answer: Its Activity is “Non-Toxic”.

Question: And the Activity (MDA-MB-231 [23])?
Answer: Its Activity is “Active”.

Question: And the Activity (MDA-MB-231 [24])?
Answer: The Activity was “Active”.

Question: And the Activity (MDA-MB-231 [25])?
Answer: Its Activity is “Active”.

Question: And the Activity (MDA-MB-231 [26])?
Answer: Its Activity is “Active”.

Question: What about the Activity (MDA-MB-231 [27]) of the same molecule?
Answer: The Activity was “Active”.

Question: What about the Activity (MDA-MB-231 [28]) of the same molecule?
Answer: Its Activity is “Active”.

Question: And the Activity (MDA-MB-231 [29])?
Answer: The Activity was “Active”.
